Molecules are shown by their SMILES.

The text below walks through data of ChEMBL document CHEMBL1156904, “Part II: piperazinyl-glutamate-pyridines as potent orally bioavailable P2Y12 antagonists for inhibition of platelet aggregation” (Bioorg Med Chem Lett, 2010).

One data set has as its target P2Y purinoceptor 12 (Homo sapiens, UniProt Q9H244). Put plainly: Inhibition of human P2Y12 receptor expressed in CHO cells.
Data set [1] is described as follows: Antiplatelet activity in human platelet rich plasma assessed as inhibition of ADP-induced platelet aggregation. It is filed as functional.
Data set [2] is described as follows: Antiplatelet activity in human platelet rich plasma assessed as inhibition of ADP-induced platelet aggregation relative to AZD-6140. It counts as functional.
The nature of data set [3]: Metabolic stability in rat microsomes. It is filed as ADME, Microsome.
A short description of data set [4]: Metabolic stability in human microsomes. It is filed as ADME, Microsome.

P2Y purinoceptor 12, sequence (Q9H244 whole entry): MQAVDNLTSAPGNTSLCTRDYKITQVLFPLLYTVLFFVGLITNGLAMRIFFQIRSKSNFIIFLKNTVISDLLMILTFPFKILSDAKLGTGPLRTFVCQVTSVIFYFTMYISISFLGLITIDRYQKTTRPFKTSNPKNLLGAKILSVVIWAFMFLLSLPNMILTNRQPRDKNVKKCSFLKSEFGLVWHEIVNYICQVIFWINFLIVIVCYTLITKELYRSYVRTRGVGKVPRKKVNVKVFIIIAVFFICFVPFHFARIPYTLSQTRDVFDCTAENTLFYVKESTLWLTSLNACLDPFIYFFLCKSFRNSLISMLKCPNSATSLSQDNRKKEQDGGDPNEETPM

The molecule `CCCCCOC(=O)N1CCN(C(=O)[C@H](CCC(=O)O)NC(=O)c2cc(N3CCN(C(=O)N4CCCC4)CC3)cc(-c3ccccc3)n2)CC1` had a Ki on P2Y purinoceptor 12 of 10 nM. Besides, the IC50 in data set [1] is 6100 nM. Besides, the “fold change (FC)” value in data set [2] was found to be 14. The Stability entry in data set [3] and in data set [4] was “Stable” throughout.

As for `CCCCCOC(=O)N1CCN(C(=O)[C@H](CCC(=O)O)NC(=O)c2cc(N3CCC(CN(C)C)CC3)cc(-c3ccccc3)n2)CC1`, the Ki at P2Y purinoceptor 12 was 1.9 nM. In addition, in data set [1], the IC50 came out at 1000 nM. Besides, the “fold change (FC)” value in data set [2] was found to be 1.3. Further, the Stability result in data set [3] and in data set [4] was “Stable” each time.

In the case of `CCCCCOC(=O)N1CCN(C(=O)[C@H](CCC(=O)O)NC(=O)c2cc(N3CCCC(C(N)=O)C3)cc(-c3ccccc3)n2)CC1` (stereo not given in full), the Ki at P2Y purinoceptor 12 was 17 nM. For the same molecule, the half-inhibitory concentration (IC50) in data set [1] came to 7800 nM. Moreover, in data set [2], the “fold change (FC)” value was 7.3. The Stability entry in data set [3] and in data set [4] was “Stable” throughout.

At P2Y purinoceptor 12, `CCCCCOC(=O)N1CCN(C(=O)[C@H](CCC(=O)O)NC(=O)c2cc(N3CCN(CCN)CC3)cc(-c3ccccc3)n2)CC1` gave a Ki of 4.5 nM. Also, the concentration for half-maximal inhibition (IC50) in data set [1] came out at 1100 nM. Besides, the “fold change (FC)” value in data set [2] stood at 1.6. Also, the Stability entry in data set [3] and in data set [4] was “Stable” in each case.

In turn, `CCCCCOC(=O)N1CCN(C(=O)[C@H](CCC(=O)O)NC(=O)c2cc(N3CC(O)C3)cc(-c3ccccc3)n2)CC1` displayed a Ki at P2Y purinoceptor 12 of 2.5 nM. The IC50 in data set [1] stood at 8600 nM. In addition, the “fold change (FC)” value in data set [2] stood at 9.2. The Stability result in data set [3] and in data set [4] was “Stable” in each case.

On P2Y purinoceptor 12, `CCCCCOC(=O)N1CCN(C(=O)[C@H](CCC(=O)O)NC(=O)c2cc(N3CC[C@@H](C(=O)N(CC)CC)C3)cc(-c3ccccc3)n2)CC1` came in with a Ki of 2.6 nM. In addition, in data set [1], the concentration for half-maximal inhibition (IC50) was 6600 nM. Moreover, the “fold change (FC)” value in data set [2] worked out at 5. Besides, the Stability result in data set [3] and in data set [4] was “Stable” each time.

At P2Y purinoceptor 12, `CCCCOC(=O)N1CCN(C(=O)[C@H](CCC(=O)O)NC(=O)c2cc(N3CCC(CNCC)CC3)cc(-c3ccccc3)n2)CC1` came in with an inhibition constant (Ki) of 3.8 nM. The IC50 in data set [1] came out at 1300 nM. The “fold change (FC)” value in data set [2] is 1.4. Besides, the Stability result in data set [3] and in data set [4] was “Stable” throughout.

Regarding `CCCCOC(=O)N1CCN(C(=O)[C@H](CCC(=O)O)NC(=O)c2cc(N3CCC(CN(CC)CC)CC3)cc(-c3ccccc3)n2)CC1`, on P2Y purinoceptor 12, the Ki was 7.5 nM. Further, the IC50 in data set [1] worked out at 2400 nM. Moreover, the “fold change (FC)” value in data set [2] was determined as 2.1. Moreover, the Stability result in data set [3] and in data set [4] was “Stable” throughout.

Take `CCCCCOC(=O)N1CCN(C(=O)[C@H](CCC(=O)O)NC(=O)c2cc(N3CCN(CCC)CC3)cc(-c3ccccc3)n2)CC1`: affinity on P2Y purinoceptor 12 was put at a Ki of 29 nM. Also, the IC50 in data set [1] amounted to 5000 nM. The “fold change (FC)” value in data set [2] is on record as 6.3. Also, the Stability result in data set [3] and in data set [4] was “Stable” in each case.

With `CCCCOC(=O)N1CCN(C(=O)[C@H](CCC(=O)O)NC(=O)c2cc(N3CCC(C(=O)N(C)C)CC3)cc(-c3ccccc3)n2)CC1`, the affinity at P2Y purinoceptor 12 corresponds to a Ki of 2.6 nM. Besides, the 50% inhibitory concentration (IC50) in data set [1] was found to be 630 nM. In data set [2], the “fold change (FC)” value stood at 0.53. Besides, the Stability entry in data set [3] and in data set [4] was “Stable” each time.

Take `CCCCCOC(=O)N1CCN(C(=O)[C@H](CCC(=O)O)NC(=O)c2cc(N3CCC(C(=O)NC(C)C)CC3)cc(-c3ccccc3)n2)CC1`: the inhibition constant Ki at P2Y purinoceptor 12 is 6 nM. In addition, in data set [1], the concentration for half-maximal inhibition (IC50) turned out to be 750 nM. Moreover, the “fold change (FC)” value in data set [2] is 0.64. Besides, the Stability entry in data set [3] and in data set [4] was “Stable” throughout.

Molecule `CCCCCOC(=O)N1CCN(C(=O)[C@H](CCC(=O)O)NC(=O)c2cc(N3CCN(C(=O)C(C)C)CC3)cc(-c3ccccc3)n2)CC1` yielded a Ki at P2Y purinoceptor 12 of 16 nM. The IC50 in data set [1] came out at 5000 nM. For the same molecule, in data set [2], the “fold change (FC)” value was found to be 6.6. The Stability entry in data set [3] and in data set [4] was “Stable” in each case.
